Patent US20200093751A1, “CHEMOPROTECTIVE/CHEMOACTIVE NANODROPLETS AND METHODS OF USE THEREOF” (priority 2016, published 2020)

Legend:
[1] = Toxicity / chemoprotective effect (body weight) in NCI-H460 tumor-bearing nude mice; type: in vivo
Method: When tumor volume reached approximately 50 mm^3, groups of tumor-bearing mice (n=5) were injected through the tail vein twice per week for a total of three weeks with a dose of 30 mg/kg per animal.
When tumor volume reached approximately 50 mm^3, groups of tumor-bearing mice (n=5) were injected through the tail vein twice per week for a total of three weeks with a dose of 30 mg/kg per animal of Tonp or once per week with a dose of 15 mg/kg per animal of TAXOTERE®.
The Tonp was injected one day before TAXOTERE® starting just before the second injection of TAXOTERE®.
Toxicity of the nanodroplet formulations was further assessed with respect to groups of mice with tumors. NCI-H460 human lung cancer cells were injected subcutaneously on the backs of nude mice to establish a tumor model. When tumor volume reached approximately 50 mm^3, mice were divided into treatment groups, which typically consisted of five mice. Mice were injected through the tail vein twice per week for three weeks with 30 mg/kg of Tonp or once per week with a dose of 15 mg/kg of TAXOTERE®.
One group of tumor-bearing mice was injected with TAXOTERE® through the tail vein once per week at a dose of 15 mg/kg per animal. […] Tonp, when used, was injected one day before TAXOTERE® starting just before the second injection of TAXOTERE®.

[2] = system: NCI-H460 human lung cancer model; assay: Tumor growth inhibition in NCI-H460 human lung cancer model in nude mice; type: in vivo; conditions: TAXOTERE 15 mg/kg tail vein once per week, two injections; treatment ended on 13th day
Method: NCI-H460 cell suspensions were injected subcutaneously on the backs of mice to establish a tumor model. When tumor volume reached approximately 50 mm^3, groups of tumor-bearing mice (n=5) were injected through the tail vein once per week for a total of two weeks with a dose of 15 mg/kg per animal for TAXOTERE® or 30 mg/kg per animal twice per week for three weeks for Tonp nanodroplets. On the 20th day, the tumor growth inhibition of d-T3 (Tonp) treatment was 70%.
NCI-H460 cell suspensions were injected subcutaneously on the backs of mice to establish the tumor model. […] The Tonp was injected one day before TAXOTERE® starting just before the second injection of TAXOTERE®.
NCI-H460 human lung cancer cells were injected subcutaneously on the backs of nude mice to establish a tumor model. When tumor volume reached approximately 50 mm^3, mice were divided into treatment groups, which typically consisted of five mice.
In one experiment, tumor-bearing mice were either left untreated, were treated with TAXOTERE®, or were treated with Tonp nanodroplets. Mice were injected through the trail vein once per week with 15 mg/kg of TAXOTERE® or twice per week for three weeks with a dose of 30 mg/kg of Tonp.
One group of tumor-bearing mice was injected with TAXOTERE® through the tail vein once per week at a dose of 15 mg/kg per animal. […]

CC(=O)O[C@@]12CO[C@@H]1C[C@H](O)[C@@]1(C)C(=O)[C@H](O)C3=C(C)[C@@H](OC(=O)[C@H](O)[C@@H](NC(=O)OC(C)(C)C)c4ccccc4)C[C@@](O)([C@@H](OC(=O)c4ccccc4)[C@H]21)C3(C)C [TAXOTERE®, docetaxel]
body weight after about two weeks of treatment ([1]; TAXOTERE 15 mg/kg once per week): significantly decreased in body weight
body weight after two injections of TAXOTERE ([1]; TAXOTERE 15 mg/kg once per week without Tonp, treatment ended on 13th day): severe body weight drop
tumor growth inhibition [2]: 71%
